Measured values: US10828305B2 (SHANGHAI PHARMACEUTICALS HOLDING CO., LTD., priority 2016, dated 2020)

Legend:
ErbB2 kinase = ErbB2 kinase (Homo sapiens, UniProt P04626); test: Enzymatic experiment on ErbB2 (HTRF kinEASE-TK); assay type: biochemical; settings: ATP 4 μM; read-out: Kinase IC50 (nM) in vitro ErbB2
Description: (§1) Enzymatic Experiment on EGFR/ErbB2
(§2) Firstly, preparing 1× reaction buffer required for the kinase, 5× Enzymatic buffer (HEPES 20 mM pH7.0, NaN3 0.1%, BSA 0.05%, sodium orthovanadate 0.5 mM) in the HTRF kinEASE-TK kit was diluted to 1 time with deionized water, 50 nM Supplement Enzymatic buffer (SEB reagent), 1 mM MnCl2, 5 mM MgCl2 and 1 mM DTT were added. Secondly, preparing 5× compound, 10 mM test compound stock solution was diluted in multiple steps with DMSO in a 96-well compound plate to prepare 100× compound as initial concentration, which was then used as the first concentration to perform a 3-fold gradient dilution with DMSO to obtain 10 concentrations. Afterwards, 1 μl gradient dilution was added to 19 μl 1× reaction buffer to prepare 5× compound for use. Then 2 μl 5× compound was transferred from the 96 well plate into a 384-well plate. To the compound-free control wells was added with 2 μl the following liquid: 19 μl 1× reaction buffer with addition of 1 μl DMSO. To the blank control wells was added 2 μl 250 mM EDTA. The third step was enzymatic reaction, the kinase, substrate (TK Substrate-biotin) and ATP were formulated into 2.5× enzyme/substrate mixture and 2.5×ATP solution using 1× reaction buffer respectively. The final concentration of ErbB2 kinase was 0.06 ng/μl, the final concentration of ATP was 4 μM; the final concentration of EGFR kinase was 0.06 units/μl, the final concentration of ATP was 1.65 μM; 4 μl 2.5× enzyme/substrate mixture was added to a 384-well plate, which was incubated at room temperature for 5 minutes; 4 μl 2.5×ATP solution was added to each well and the mixture was allowed to react for 30 minutes at room temperature. The fourth step was termination of the reaction, HTRF Detection buffer was used to prepare a mixture of 2×TK Antibody-Eu(K) and Sa-XL665, the amount of TK Antibody-Eu(K) was 5 μl per well. After the enzymatic reaction was performed for 30 minutes, 10 μl of the above liquid was added to the 384-well plate and the mixture was allowed to react at room temperature for 1 hour. The data was measured on EnVision™, the laser of 337 nm wavelength was selected as the excitation light, RFU665 nM and RFU620 nM were measured, and […]/RFU620 nM×10000 was used as the final data for analysis.

EGFR kinase = EGFR kinase (Homo sapiens, UniProt P00533); test: Enzymatic experiment on EGFR (HTRF kinEASE-TK); assay type: biochemical; settings: ATP 1.65 μM; read-out: Kinase IC50 (nM) in vitro EGFR
Chain of EGFR kinase (P00533 25-1210): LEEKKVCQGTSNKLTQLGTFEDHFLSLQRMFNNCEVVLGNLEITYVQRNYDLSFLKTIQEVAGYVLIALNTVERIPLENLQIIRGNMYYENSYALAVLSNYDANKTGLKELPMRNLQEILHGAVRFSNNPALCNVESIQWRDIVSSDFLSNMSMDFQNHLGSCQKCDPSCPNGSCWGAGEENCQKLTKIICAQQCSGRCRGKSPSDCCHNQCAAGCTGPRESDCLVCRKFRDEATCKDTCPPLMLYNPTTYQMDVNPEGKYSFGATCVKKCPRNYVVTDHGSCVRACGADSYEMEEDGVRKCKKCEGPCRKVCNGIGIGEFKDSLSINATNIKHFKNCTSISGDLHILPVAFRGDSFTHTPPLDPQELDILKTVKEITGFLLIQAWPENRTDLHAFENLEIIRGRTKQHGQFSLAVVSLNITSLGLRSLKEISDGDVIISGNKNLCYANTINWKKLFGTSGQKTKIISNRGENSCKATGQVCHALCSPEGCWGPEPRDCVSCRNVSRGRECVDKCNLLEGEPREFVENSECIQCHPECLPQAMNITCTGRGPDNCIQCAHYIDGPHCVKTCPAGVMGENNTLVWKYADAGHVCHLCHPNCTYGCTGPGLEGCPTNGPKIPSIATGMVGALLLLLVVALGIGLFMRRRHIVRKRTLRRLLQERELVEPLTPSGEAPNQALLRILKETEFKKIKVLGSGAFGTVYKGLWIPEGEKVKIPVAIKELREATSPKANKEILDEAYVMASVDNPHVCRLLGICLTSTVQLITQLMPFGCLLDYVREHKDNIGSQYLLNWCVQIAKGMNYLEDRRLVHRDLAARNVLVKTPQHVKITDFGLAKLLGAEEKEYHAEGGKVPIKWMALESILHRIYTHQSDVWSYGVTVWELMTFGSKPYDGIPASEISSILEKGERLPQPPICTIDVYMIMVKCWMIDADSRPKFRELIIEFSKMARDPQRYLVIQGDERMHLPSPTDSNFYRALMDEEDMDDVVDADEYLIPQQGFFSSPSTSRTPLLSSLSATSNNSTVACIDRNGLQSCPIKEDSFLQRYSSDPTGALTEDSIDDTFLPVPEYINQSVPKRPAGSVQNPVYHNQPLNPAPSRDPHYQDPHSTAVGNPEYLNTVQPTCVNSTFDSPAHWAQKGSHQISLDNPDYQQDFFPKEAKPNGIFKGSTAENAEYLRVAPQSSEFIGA
Description: as §1, §2

N87 = test: Proliferation inhibition assay in vitro, N87 (CellTiter-Glo); assay type: cell-based; settings: Homo sapiens; 72 hours; read-out: IC50(nM) cell N87
Description: (§3) Proliferation Inhibition Assay In Vitro of Cell Lines
(§4) 1. Cell culture and inoculation: on the first day of the experiment, normal cultured cells were taken in the exponential growth phase, the cells were dispersed by digesting, then the cell density was adjusted to 8.8×10^4 cells/mL for BT-474 and 6.6×10^4 cells/mL for N87, 90 μl of which were inoculated to each well in a 96-well cell culture plate; after inoculation, the microplate was placed at condition of 37° C., 5% CO2 overnight. 2. Dosing to cells: on the second day of the experiment, the microplate was taken out from incubator, […], of 10× compound was separately added to each well of the microplate, 2 duplicated wells were set for each concentration, 9 dosing concentrations were set for each compound. According to different cell lines, the initial concentration of each compound was different. Upon completion of addition, the microplate was placed at condition of 37° C., 5% CO2 for 72 hours. 3. Data acquisition: the microplate was taken out from the incubator and allowed to stand at room temperature to equilibrate for 30 minutes. 100 μl CellTiter-Glo® Luminescent Cell Viability Assay reaction solution which had been equilibrated at room temperature was added to each well and the microplate was shaken at 1300 rpm for 2 minutes at room temperature. The microplate was centrifuged at 2000 rpm for 1 minute in a HERAEUS Multifuge X1R and then allowed to equilibrate at room temperature for 10 minutes. The […] signal was measured on EnVision™.

BT-474 = test: Proliferation inhibition assay in vitro, BT-474 (CellTiter-Glo); assay type: cell-based; settings: Homo sapiens, 72 hours, read-out: IC50(nM) cell BT-474
Description: as §3, §4

Chain of ErbB2 kinase (P04626 23-1255): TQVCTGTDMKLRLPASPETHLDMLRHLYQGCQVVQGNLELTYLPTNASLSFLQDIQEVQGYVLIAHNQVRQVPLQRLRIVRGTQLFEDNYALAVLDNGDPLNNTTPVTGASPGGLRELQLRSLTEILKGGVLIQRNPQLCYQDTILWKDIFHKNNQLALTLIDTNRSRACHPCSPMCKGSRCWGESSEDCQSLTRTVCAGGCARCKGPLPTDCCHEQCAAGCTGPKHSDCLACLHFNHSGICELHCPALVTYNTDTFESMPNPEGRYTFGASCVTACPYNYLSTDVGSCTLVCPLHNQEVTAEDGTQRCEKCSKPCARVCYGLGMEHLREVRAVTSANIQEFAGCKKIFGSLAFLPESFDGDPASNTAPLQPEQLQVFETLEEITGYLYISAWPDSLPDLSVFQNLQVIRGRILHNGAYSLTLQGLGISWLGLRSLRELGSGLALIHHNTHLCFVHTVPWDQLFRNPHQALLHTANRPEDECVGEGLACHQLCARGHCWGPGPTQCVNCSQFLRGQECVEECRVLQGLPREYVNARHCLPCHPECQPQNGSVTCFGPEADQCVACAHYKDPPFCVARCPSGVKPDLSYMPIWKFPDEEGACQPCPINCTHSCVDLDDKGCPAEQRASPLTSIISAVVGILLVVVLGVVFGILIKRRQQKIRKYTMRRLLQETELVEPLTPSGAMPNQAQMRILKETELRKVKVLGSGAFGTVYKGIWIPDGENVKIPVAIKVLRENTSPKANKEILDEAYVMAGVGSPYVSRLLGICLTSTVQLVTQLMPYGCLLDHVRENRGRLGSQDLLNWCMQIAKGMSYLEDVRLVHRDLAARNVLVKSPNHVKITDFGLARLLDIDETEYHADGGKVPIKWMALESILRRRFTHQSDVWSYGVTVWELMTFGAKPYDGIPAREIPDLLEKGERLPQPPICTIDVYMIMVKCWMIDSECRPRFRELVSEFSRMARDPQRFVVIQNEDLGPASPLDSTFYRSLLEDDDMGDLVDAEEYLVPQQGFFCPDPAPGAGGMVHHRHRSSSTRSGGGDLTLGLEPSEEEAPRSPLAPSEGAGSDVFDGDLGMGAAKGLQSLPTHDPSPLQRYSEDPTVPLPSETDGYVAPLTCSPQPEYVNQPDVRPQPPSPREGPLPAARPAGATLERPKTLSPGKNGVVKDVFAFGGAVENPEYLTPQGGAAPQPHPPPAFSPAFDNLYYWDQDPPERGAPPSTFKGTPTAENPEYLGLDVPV

| IC50 (ErbB2 kinase) [nM] | IC50 (EGFR kinase) [nM] | IC50 (BT-474) [nM] | SMILES | IC50 (N87) [nM] |
| --- | --- | --- | --- | --- |
| 1 | 12.6 | 120 | Cc1cc(Nc2ncnc3ccc(-c4cc[nH]c4)cc23)ccc1Oc1cc2nncn2cn1 [Embodiment 80, N-(4-([1,2,4]triazolo[4,3-c]pyrimidin-7-yloxy)-3-methylphenyl)-6-(1H-pyrrol-3-yl)quinazolin-4-amine] | 36 |
| 1.1 | 10.9 | 49.6 | Cc1cc(Nc2ncnc3ccc(-c4cccc(N)c4)cc23)ccc1Oc1cc2nncn2cn1 [Embodiment 35] | 52.9 |
| 1.1 | 2.2 | 7.1 | Cc1cc(Nc2ncnc3ccc(NC(=O)CCl)cc23)ccc1Oc1cc2nncn2cn1 [Embodiment 82, N-(4-((4-([1,2,4]triazolo[4,3-c]pyrimidin-7-yloxy)-3-methylphenyl)amino)quinazolin-6-yl)-2-chloroacetamide] | 5 |
| 2.7 | 87.2 | 37 | Cc1cc(Nc2ncnc3ccc(/C=C/CNC(=O)C4CC4)cc23)ccc1Oc1cc2nncn2cn1 [Embodiment 122, (E)-N-(3-(4-((4-([1,2,4]triazolo[4,3-c]pyrimidin-7-yloxy)-3-methylphenyl)amino)quinazolin-6-yl)allyl)cyclopropylcarboxamide] | 92 |
| 21.5 | 445 | 264 | Cc1cc(Nc2ncnc3ccc(NC(=S)NC(C)(C)CO)cc23)ccc1Oc1cc2nncn2cn1 [Embodiment 106, 1-(4-((4-([1,2,4]triazolo[4,3-c]pyrimidin-7-yloxy)-3-methylphenyl)amino)quinazolin-6-yl)-3-(1-hydroxy-2-methylpropan-2-yl)thiourea] | 933 |
| 3.5 | 20.7 | 42.7 | C=C(F)C(=O)Nc1cccc(-c2ccc3ncnc(Nc4ccc(Oc5cc6nncn6cn5)c(C)c4)c3c2)c1 [Embodiment 71, N-(3-(4-((4-([1,2,4]triazolo[4,3-c]pyrimidin-7-yloxy)-3-methylphenyl)amino)quinazolin-6-yl)phenyl)-2-fluoroacrylamide] | 66.4 |
| 4.3 | 2 | 92.6 | CNC(=O)CN1CCC(Oc2cc3c(Nc4ccc(Oc5cc6nncn6cn5)c(C)c4)ncnc3cc2OC)CC1 [Embodiment 32, 2-(4-(7-methoxy-4-(3-methyl-4-([1,2,4]triazolo[4,3-c]pyrimidin-7-yloxy)anilino)quinazolin-6-yl)oxy-1-piperidinyl)-N-methylacetamide] | 440 |
| 2.8 | 53.4 | 85.4 | Cc1cc(Nc2ncnc3ccc(NC4=N[C@H](C(C)C)CO4)cc23)ccc1Oc1cc2nncn2cn1 [Embodiment 45, (R)—N^4-(4-([1,2,4]triazolo[4,3-c]pyrimidin-7-yloxy)-3-methylphenyl)-N^6-(4-isopropyl-4,5-dihydrooxazol-2-yl)quinazoline-4,6-diamine] | 93.4 |
| 14.8 | 28.7 | 484 | CC(=O)C(=O)Nc1ccc2ncnc(Nc3ccc(Oc4cc5nncn5cn4)c(C)c3)c2c1 [Embodiment 128, N-(4-((4-([1,2,4]triazolo[4,3-c]pyrimidin-7-yloxy)-3-methylphenyl)amino)quinazolin-6-yl)-2-oxopropionamide] | 868 |
| 1.2 | 14.9 | 17.4 | Cc1cc(Nc2ncnc3ccc(-c4ccc(CNCCS(C)(=O)=O)o4)cc23)ccc1Oc1cc2nncn2cn1 [Embodiment 15, N-(4-([1,2,4]triazolo[4,3-c]pyrimidin-7-yloxy)-3-methylphenyl)-6-(5-(((2-(methylsulfonyl)ethyl)amino)methyl)furan-2-yl)quinazolin-4-amine] | 33.2 |
| 4.9 | 17.3 | 141 | Cc1cc(Nc2ncnc3ccc(NC4=NC5(CO4)CN(C)C5)cc23)ccc1Oc1cc2nncn2cn1 [Embodiment 30, N^4-(4-([1,2,4]triazolo[4,3-c]pyrimidin-7-yloxy)-3-methylphenyl)-N^6-(2-methyl-7-oxa-2,5-diazaspiro[3.4]oct-5-en-6-yl)quinazoline-4,6-diamine] | 771 |
| 8.41 | 47.1 | 108 | Cc1cc(Nc2ncnc3ccc(-c4cccc(NC(=O)/C=C/c5cccnc5)c4)cc23)ccc1Oc1cc2nncn2cn1 [Embodiment 51, (E)-N-(3-(4-((4-([1,2,4]triazolo[4,3-c]pyrimidin-7-yloxy)-3-methylphenyl)amino)quinazolin-6-yl)phenyl)-3-(pyridin-3-yl)acryiamide] | 93.7 |
| 4.1 | 127 | 128 | Cc1cc(Nc2ncnc3ccc(NC4=NCC(C)O4)cc23)ccc1Oc1cc2nncn2cn1 (stereo not shown) [Embodiment 24, N^4-(4-([1,2,4]triazolo[4,3-c]pyrimidin-7-yloxy)-3-methylphenyl)-N^6-(5-methyl-4,5-dihydrooxazol-2-yl)quinazoline-4,6-diamine] | 177 |
| 3.3 | 22.1 | 98.2 | CC1(C)COC(Nc2ccc3ncnc(Nc4ccc(Oc5cc6nncn6cn5)c(F)c4)c3c2)=N1 [Embodiment 19, N^4-(4-([1,2,4]triazolo[4,3-c]pyrimidin-7-yloxy)-3-fluorophenyl)-N^6-(4,4-dimethyl-4,5-dihydrooxazol-2-yl)-quinazoline-4,6-diamine] | 125 |
| 1.7 | 7.7 | 24.7 | Cc1cc(Nc2ncnc3ccc(-c4ccc(CNCCS(C)(=O)=O)s4)cc23)ccc1Oc1cc2nncn2cn1 [Embodiment 79] | 37.2 |
| 1.1 | 18.7 | 38.5 | Cc1cc(Nc2ncnc3ccc(NC4=NC(C)(C)CO4)cc23)ccc1Oc1cc2nccn2cn1 [Embodiment 3, N^6-(4,4-dimethyl-4,5-dihydrooxazol-2-yl)-N^4-(4-(imidazo[1,2-c]pyrimidin-7-yloxy)-3-methylphenyl)quinazoline-4,6-diamine] | 48.7 |
| 4.9 | 82.2 | 27.9 | Cc1cc(Nc2ncnc3ccc(-c4cccc(NC(=O)/C=C/CN(C)C)c4)cc23)ccc1Oc1cc2nncn2cn1 [Embodiment 76, (E)-N-(3-(4-((4-([1,2,4]triazolo[4,3-c]pyrimidin-7-yloxy)-3-methylphenyl)amino)quinazolin-6-yl)phenyl)-4-(dimethylamino)but-2-enamide] | 42.8 |
| 1.5 | 1.9 | 21.5 | Cc1cc(Nc2ncnc3ccc(-c4ccc(CNCCNS(C)(=O)=O)o4)cc23)ccc1Oc1cc2nncn2cn1 [Embodiment 36, N-(2-(((5-(4-((4-([1,2,4]triazolo[4,3-c]pyrimidin-7-yloxy)-3-methylphenyl)amino)quinazolin-6-yl)furan-2-yl)methyl)amino)ethyl)methylsulfonamide] | 47.5 |
| 1.5 | 14.2 | 30 | Cc1cc(Nc2ncnc3ccc(-c4cc(CNCCS(C)(=O)=O)co4)cc23)ccc1Oc1cc2nncn2cn1 [Embodiment 62] | 72.4 |
| – | 57.6 | 14.2 | Cc1cc(Nc2ncnc3ccc(NC4=NC(C)(C)CO4)cc23)ccc1Oc1ccn2ncnc2c1 [drawing 219, reference compound] | 13.2 |
